The values that follow come from patent US12344820B2, “Laundry detergent and fabric care compositions with sulfonamides for odor removal from fabrics” (Rem Brands, Inc., priority 2019, dated 2025).

The test can be described thus: Soaking of sweaty polyester workout shirts in BENZ solution, subjective scent rating by a group of people. The following applies: for Post Dry average scent rating: 30 min soak, after shirt dried; for Post Wet average scent rating: after 30 minutes of soaking; for Pre Soak average scent rating: shirt smelled before soaking (baseline). From the text:
Polyester workout shirts were worn without deodorant during a one-hour workout to induce copious amounts of sweat. The shirts were kept in sealed plastic bags for several days, mimicking normal wash schedule delay. The shirts were then soaked in buckets containing various amounts of N-chloro-4-carboxybenzenesulfonamide (BENZ). The bucket contained either zero (control), 0.02 wt %, 0.04 wt %, or 0.15 wt % of the BENZ (e.g. 0.02 grams BENZ per 100 grams of water, w/w). No agitation, spinning, or moving of any kind occurred during the soaking. After 30 minutes of soaking, the shirts were wrung out and laid to dry.
The shirts were smelled before soaking (Pre Soak), after the 30 minutes of soaking (Post Wet), and after they were dried (Post Dry) by a group of people who subjectively rated the scent of the shirt on a scale of 0 (no smell) to 10 (extremely smelly).

Where [1] appears, read: 0.02 wt % BENZ in water, scale 0 to 10.
Where [2] appears, read: 0.04 wt % BENZ in water, scale 0 to 10.
Setting [3] is: 0.15 wt % BENZ in water, scale 0 to 10.

The structures appear in SMILES notation.

Regarding `O=C(O)c1ccc(S(=O)(=O)NCl)cc1` [BENZ, N-chloro-4-carboxybenzenesulfonamide], the “Post Dry average scent rating” value under setting [1] came out at 5, the “Post Dry average scent rating” value under setting [2] worked out at 4 and the “Post Dry average scent rating” value under setting [3] is on record as 0. In addition, the “Post Wet average scent rating” value under setting [1] is 5, the “Post Wet average scent rating” value under setting [2] worked out at 5 and the “Post Wet average scent rating” value under setting [3] was 1. The “Water average scent rating” value by setting is: under setting [1], 7; under setting [2], 5; under setting [3], 2. Further, the “Pre Soak average scent rating” value (0.02 wt % BENZ in water, scale 0 (no smell) to 10 (extremely smelly)) is on record as 10; the “Pre Soak average scent rating” value under setting [2] amounted to 10; the “Pre Soak average scent rating” value under setting [3] turned out to be 10. The “effect on malodor” value runs as follows: (0.02 wt % concentration) “reduced the intensity of the malodor significantly”; (0.04 wt % concentration) “reduced the intensity of the malodor significantly”; (0.15 wt % concentration, once the shirt was dry) “eradicated the malodor completely”.
